In patent publication US12508261B2, “Methods of treating depression with vortioxetine” (Rundle Research LLC, priority 2017, dated 2025):

Assay: Clinical pharmacokinetic study (RUN-001): vortioxetine 5 mg once daily for 29 days, then 28 days washout, obese vs normal-weight subjects
Format: in vivo, human
Conditions: both, human, in vivo
Procedure: To test if the obese patients would require different washout guidelines for preventing serotonin syndrome, 16 obese subjects (BMI≥35) and 13 normal subjects (BMI<25) completed a clinical trial where they were administered daily with low doses (5 mg/day) of vortioxetine for 29 days in a controlled study. All subjects were subsequently tracked for 28 days after discontinuing vortioxetine on day 29. Blood samples were collected and processed according to standard techniques.
The normal-weight control group consisted of healthy male and female volunteers aged 18 to 45 years. Their body mass index (BMI) values fell in the range of […]. […] Normal weight and obese subjects were matched as closely as possible for gender and age.
CYP2D6 genotype status was determined from whole blood samples drawn from each subject. Known alleles of CYP2D6 were tested for, as well as the presence of gene duplications (LabCorp, Inc.). CYP2D6 metabolizer status was categorized as ultra-rapid, extensive, intermediate, or poor. Ultra-rapid and poor metabolizers were not included in the study.
All subjects received vortioxetine, 5 mg once daily in the morning, for 29 days. The first dose was on Day 1, and the last dose was on Day 29. Blood sampling continued for another 28 days after the last dose, through Day 57.
Subjects spent 12 hours in the study unit on Day 1 (first dose of vortioxetine) and Day 29 (last dose of vortioxetine). On those two study days, venous blood samples (7 mL each) were drawn prior to the dose of vortioxetine, and at 1, 2, 4, 6, 8, 10, and 12 hours after dosage.
During the 29-day period of daily vortioxetine administration, subjects returned to the study unit in the morning of the following study days: 2, 3, 5, 8, 10, 12, 15, 17, 19, 22, 24, 26, and 29. At each visit, a single venous blood sample (7 mL) was drawn before the daily dose of vortioxetine. Subjects underwent a brief interview to assess subjective effects and possible adverse events. Subjects were then discharged until the next scheduled visit. They were provided with vortioxetine doses sufficient for daily morning administration until the next visit. No more than 2 consecutive doses of vortioxetine were taken on an outpatient basis.
On Day 29 (the final dose of vortioxetine), subjects spent 12 hours in the study unit as described above. They returned to the study unit for a single blood sample on the mornings of the following Days: 30, 31, 33, 36, 38, 40, 43, 45, 47, 50, 52, 54, and 57.
Plasma concentrations of vortioxetine were determined by liquid chromatography—mass spectrometry using a Shimadzu HPLC system coupled to a Sciex API-4000 mass spectrometer.
The internal standard (vortioxetine-d8) was added to calibration standards, quality control samples, and unknown study samples. All samples were extracted with methyl tert-butyl ether. The organic phase was separated and evaporated to dryness; the reconstituted extract was injected into the HPLC system. The HPLC column was a Unison UK-C18, 50 mm×2 mm, 3 micron particle size. The mobile phase consisted of an organic component (0.1% formic acid in acetonitrile) and an aqueous component (0.1% formic acid and 2 mM ammonium acetate in water). This was delivered in gradient mode at a net flow rate of 0.4 mL/min, with the organic fraction varying from 40% to 96%. m/z monitored were: 299.1/150.1 for vortioxetine, and 307.1/153 for vortioxetine-d8. The limit of quantitation was 0.1 ng/mL. […] All samples from a given study subject were extracted and analyzed at the same time using the same calibration standards.
Based on the clinical trials discussed above, several equations were derived which allow an individual to calculate the washout period (i.e., the time between stopping vortioxetine and initiating treatment with an MAOI). Data points to consisted of pre-dose plasma vortioxetine concentration (C) on each study day (t), both during (Days 1-29) and after (Days 30-57) the period of vortioxetine administration. […]

elimination half-life: 78.2 h
Compound: CC[C@@H]([C@H](C)O)n1ncn(-c2ccc(N3CCN(c4ccc(OC[C@@H]5CO[C@@](Cn6cncn6)(c6ccc(F)cc6F)C5)cc4)CC3)cc2)c1=O [posaconazole]
